# Measurements published in US10676519B2, “Chimeric proteins and their use in identifying anti-deubiquitinase compounds” (The Florida State University Research Foundation, Inc., priority 2017, dated 2020).
# Assays:
# [1] = system: counterscreen strain (yeast with UBP6 intact); experiment: DMSO tolerance of the counterscreen yeast strain, growth in microtiter plates; assay type: cell-based, Saccharomyces cerevisiae; settings: counterscreen strain (FIG. 4B); concentrations of DMSO up to 1%; cell density monitored over 24 hours; sextuplicate
# Description: (§1) In baker's yeast (S. cerevisiae), deletion of the endogenous yeast Rpn11 gene is lethal, but inhibition of Rpn11 deubiquitinating activity is not. Inhibition of Rpn11 activity is lethal only when a second deubiquitinase, UBP6, is deleted (FIG. 2A). Importantly, this synthetic lethal relationship is maintained in yeast harboring hRpn11 (FIG. 3). Thus, a selective inhibitor of human Rpn11 would be lethal in the hRpn11 strain lacking UBP6 (primary screen strain), but nontoxic in a strain containing UBP6 and harboring inactivating point mutations in hRpn11 (counterscreening strain) (FIG. 2B). By measuring cell growth in the presence of potential inhibitors using any commercially available plate reader, a high throughput cell-based screen for compounds selectively inhibiting hRpn11 can be enacted.
# (§2) Many high throughput screens include a library of chemical compounds having different solubility in different solvents. A common solvent used to solve this issue is dimethyl sulfoxide (“DMSO”). However, DMSO can be toxic to biological cells. Thus, it is advantageous if the biological cell is resistant to levels of DMSO which are used to dissolve compounds in a library. […]
# (§3) In a fourth example, yeast strains were evaluated for tolerance of a commonly used solvent in high throughput screens. […] Cell density was monitored over 24 hours as an indicator of cell growth.
# [2] = system: primary screen strain (yeast with hRpn11, UBP6 deleted); experiment: DMSO tolerance of the primary screen yeast strain, growth in microtiter plates; assay type: cell-based, Saccharomyces cerevisiae; settings: primary screen strain (FIG. 4A); concentrations of DMSO up to 1%; cell density monitored over 24 hours; sextuplicate
# Description: as §1, §2, §3
structure (smiles),measurement,setting,value
"C[S+](C)[O-] [DMSO, dimethylsulfoxide]","differences in growth rate, time to saturation, or saturation cell density",[1],No statistical differences
same,"differences in growth rate, time to saturation, or saturation cell density",[2],No statistical differences
